Source: patent publication US9205128B2, “Method for inhibiting HIV replication in mammal and human cells” (priority 2010, dated 2015)
No end group written: not given here.

How the values were obtained:
[1] = test system: HIV-1; test: Total virus challenge of MT4 cells, p24 antigen ELISA; assay type: cell-based; conditions: HIV-1 Bru, m.o.i. 0.01, 5-day incubation
[2] = test system: HIV-1; conditions: PBMCs of infected individuals treated ex vivo; 15d-PGJ2 at 5 μM; vs untreated cells
Method: PBMCs were isolated from whole blood of HIV-1 infected individuals by Ficoll density gradients. […] Replication was evaluated by determining the p24 antigen concentration on culture supernatants by the ELISA method.

[3] = test system: vimentin protein; conditions: Stamatakis et al. 2006; cited from earlier work
[4] = test system: cytoskeletal intermediate filaments (IFs); test: IFs structural analysis by transmission electron microscopy; assay type: cell-based, human; conditions: treated patients (two with SEQ ID No. 1, three with SEQ ID No. 2)
Method: Firstly, MT4vim(s), MT4K-10(s) and MT4 cells were fixed in 3.2% glutaraldehyde for 1 h at 4° C. and then fixed in 2% osmium tetroxide for 1 h at 4° C. They were subsequently washed with 0.1 M phosphate buffered saline (PBS), pH 7.2, and dehydrated at increasing ethanol concentrations (30, 50, 70 and 100%) for 10 min each at 4° C. Inclusion was carried out and ultrathin 40-50 nm-width sections were taken in an ultramicrotome (NOVA, LKB), which were placed on 400-orifices nickel trays. Once the ultrathin cuts were taken and placed on the trays, they were contrasted with saturated uranyl acetate and lead citrate, and further examined under a JEOL JEM 2000 EX (JEOL) microscope. Five microphotographs were analyzed at different magnifications. MT4 cell intact IFs are shown in FIG. 5A, meanwhile these structures appeared shortened in MT4vim(s) MT4K-10(s) cells (FIGS. 5B and C, respectively). […] Inhibition of the viral replication was observed under these conditions. Vimentin or keratin-10 proteins were identified at IFs by immunomicroscopy.
IFs structure was analyzed by transmission electron microscopy, following the methodology described in Example 3.
IFs structures were analyzed by transmission electron microscopy, following the methodology described in Example 3. […]

[5] = test system: HIV-2 CBL-20 strain; test: HIV-2 replication in pre-stimulated PBMCs, p24; assay type: cell-based; conditions: 7 days
Method: PBMCs were isolated from whole blood of healthy individuals by using Ficoll density gradients. […] Cells were subsequently maintained in PHA-free medium and seeded at 150 000 cells per well in 96-well plates. After 24 h, peptides were added at different concentrations and the cultures were infected with the CBL-20 HIV-2 strain. The cultures were kept for 7 days, being changed every 3 days the medium and the peptides added. Cultures were harvested and supernatants collected to evaluate the presence of the p24 viral protein.

[6] = test system: HIV-1; conditions: 150 mg per day, 6 months follow-up; two of eight patients (both formulations pooled)
[7] = test system: MT4 cells; test: Cellular penetration of peptides by flow cytometry; assay type: cell-based, human; conditions: 5-40 μM, 15, 30 and 60 min
Method: HeLa CD4+ cells were seeded in RPMI medium supplemented at 10% FBS and incubated until reaching 60% confluence of the monolayer. MT4 cells were seeded at 50 000 cells per well in RPMI medium at 10% FBS. Peptides identified as SEQ ID No. 1 and SEQ ID No. 3 were resuspended in injection water and evaluated at 5, 10, and 40 μM concentrations. Peptides were incubated for […] at 37° C. under a 5% CO2 atmosphere, and penetration was evaluated after 15, 30 and 60 min. After each period of time, cells were harvested and immediately analyzed by flow cytometry. Three replicates were analyzed per experimental variant.

[8] = target: T1, vimentin (Homo sapiens, UniProt P08670); test: Western blot of vimentin in MT4 cells incubated with peptides; assay type: cell-based; conditions: 50 μM peptide, 24 h
T1 construct: these proteins are endogenous cellular proteins rather than viral; endogenous in cells; host or cells: MT4 cell line (untransduced, shRNA-transduced MT4vim(s), or peptide-treated)
T1 sequence (P08670 whole entry): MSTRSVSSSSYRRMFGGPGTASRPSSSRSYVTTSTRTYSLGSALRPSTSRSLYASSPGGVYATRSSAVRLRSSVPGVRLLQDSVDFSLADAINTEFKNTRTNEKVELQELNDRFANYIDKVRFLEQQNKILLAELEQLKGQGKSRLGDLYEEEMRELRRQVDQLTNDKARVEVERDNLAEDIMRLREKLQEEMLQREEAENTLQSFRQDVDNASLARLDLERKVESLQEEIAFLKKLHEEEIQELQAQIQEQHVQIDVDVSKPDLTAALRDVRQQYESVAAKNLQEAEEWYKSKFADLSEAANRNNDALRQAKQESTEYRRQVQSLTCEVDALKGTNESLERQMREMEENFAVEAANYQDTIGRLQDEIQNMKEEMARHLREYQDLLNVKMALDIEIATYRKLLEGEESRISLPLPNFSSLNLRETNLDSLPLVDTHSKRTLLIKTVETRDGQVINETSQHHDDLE
Method: The MT4 cell line was incubated at 50 μM of each peptide for 24 h. The vimentin protein was detected by the western blot technique. Cellular extracts were resuspended in 1% sodium dodecyl sulphate (SDS) and applied in a 10% polyacrylamide gel, being further transferred to a Hybond-P […] membrane. For immunoidentification purposes, anti-vimentin and anti-β actin (as control) antibodies were used. An anti-mouse IgG antibody-peroxidase conjugate was used as secondary antibody. The activity of the peroxidase enzyme was visualized by using diaminobenzidine in the presence of hydrogen peroxide and PBS.

| Molecule | % of HIV-1 inhibition [2] | HIV-2 replication [5] | vimentin band intensity [8] | also measured |
| --- | --- | --- | --- | --- |
| CCCCC/C=C/C=C1/C(=O)C=C[C@@H]1C/C=C\CCCC(=O)O [Peptide 15d-PGJ2, prostaglandin cyclopentane 15 deoxy-Δ-^12,14-PGJ2] | 80.1% | – | – | HIV replication [1]: inhibits the HIV replication in vitro; binding to vimentin [3]: binds to the vimentin protein |
| DMEIATYRTLLEGEESRM [Peptide 2] | 81.1% | inhibited HIV-2 replication in a dose-dependent manner | – | IFs structure [4]: shortened; viral load after treatment [6]: undetectable |
| KVELQELNDRFANYIDKVRF [Peptide 3] | 85.3% | – | – | – |
| RVTQMNLNDRLASLYDKV [Peptide 1] | 89.3% | – | – | penetration into cells [7]: able to penetrate by their own into the MT4 cells |
| RVTQMNLNDRLASLYDKVHYRIKPTFRRLKWKYKGKFW [Peptide 9] | 81.3% | inhibited HIV-2 replication in a dose-dependent manner | decreased intensity | – |
| RVTQMNLNDRLASLYDKVRALEESNYELEGKIKEW [Peptide 8] | 86.7% | inhibited HIV-2 replication in a dose-dependent manner | decreased intensity | – |
